# Patent US12239617B2, “Mono- and di-amidine endo-exonuclease inhibitors and methods for inhibiting endo-exonuclease activity” (MONTDOREX INC., priority 2017, dated 2025)
# Key:
# [1] = tested on: Endo/exonuclease in Pneumocystis carinii; conditions: cited from earlier work
# human endo-exonuclease = test: Endo-exonuclease inhibition assay (digestion of circular plasmid DNA, agarose gel); assay type: biochemical
# Method: The human endo-exonuclease was isolated according to the method described by Liu and Chow et al (1995). The cultured cells were detached with trypsin-EDTA and the cell suspensions were centrifuged at 4° C. with a force of 700 g for 10 minutes. The cell pellets were washed twice with cold phosphate buffered saline (PBS). The cells were then resuspended and sonicated in 20 mM Tris-HCl, pH 7.5, containing 5 mM EDTA and 1 mM PMSF (buffer A). The resulting cell lysis suspensions were centrifuged at 4° C. at 10,000 g for 15 min. The supernatants were then loaded onto an antibody-protein A-Sepharose affinity column, as previously described by Chow and Resnick (1987). After washing extensively with buffer A (i.e. until the A280 of the eluates were zero), the column was then eluted with buffer A containing 3.5 M MgCl2 to elute the endo-exonuclease. The eluted endo-exonuclease was dialyzed extensively against buffer A with at least two changes of buffer and one change of distilled water. The endo-exonuclease was then concentrated by lyophilization.
# The endo-exonuclease activities were determined by measuring the digestion of circular plasmid DNA following the exemplary set of steps. Superhelical pBR322 DNA (or YEp DNA) was treated with endo-exonuclease at 37° C. Reactions were stopped by the addition of a solution containing 5 mM EDTA, 1% SDS, 30% glycerol, and bromophenol blue. The resulting mixtures were then loaded onto a 0.7% agarose gel and electrophoresed for 3 hours at 70 V. The gels were stained with 100 ml of 0.5 μg/ml ethidium bromide solution. Endo-exonuclease activities were measured as the rate of conversion from RFI to RFII to RFIII and subsequent fragments.
# For the inhibition assay, pentamidine, mono-amidine compounds according to the present teachings and di-amidine compounds according to the present teachings were added to the endo-exonuclease prior to the start of the nuclease reaction. In order to arrive at the measurements related to the % of cell growth of H661, the MTT assay as described above was performed. The resulting endo-exonuclease inhibition is shown in the Table 1 and Table 2 that follow: […]
# Lewis Lung cancer cells = test: Lewis Lung cancer secondary lung tumours in mice after removal of the primary tumour; assay type: in vivo; conditions: treated after surgical removal of primary tumour
# Method: Lewis Lung cancer cells are injected subcutaneously into standard laboratory mice […]. Thereafter, they rapidly formed solid tumours. The sizes of the tumours can be measured. Although the injected cells are derived from lung cancers, the tumours actually grow in the back of the mice. All animals were inoculated at the same site. Primary tumours were allowed to grow until they were 0.5-1.0 cm^3 in size. At this point, cells from the tumours start circulating in the blood streams of the mice. These circulating cells have the capacity to form secondary tumours in the lung. The primary tumours are removed surgically from the mice. The mice are then treated with the amidine compounds so as to try and control the growth of secondary tumours. The extent to which control has been achieved is measured by sacrificing the mice and by physically counting the new tumours that can be seen growing on the surfaces of the lungs.
# H661 (Lung Cancer Cell) = test: MTT assay, cell growth of H661 lung cancer cell; assay type: cell-based
# From the text: Cell Survival—MTT assay: The MTT (3-[4,5-Dimethylthiazol-2-yl]-2,5 diphenyl tertrazolim bromide) method of determining cell growth/cytotoxicity is used to determine cell survival. MIT is a tetrazolium salt cleaved by mitochondrial dehydrogenases of living cells. Cleavage converts yellow, water soluble MTT to an insoluble, purple formazan crystal. The crystals can be solubilized with a 50% N,N-dimethylformamide (vol/vol), 20% SDS (wt/vol) solution (pH4.7), and absorbance determined at a wavelength of 570 nm. Dead cells will not cleave MTT and uncleaved MTT is not detectable at this wavelength. The amount of MTT that is cleaved increases with increasing cell numbers, and decreases as a result of cell cytotoxicity (Niks and Otto 1990, Hussain et al. 1993). Cells were harvested from cell cultures using a standard protocol (i.e. Trypsin/EDTA). The cells (1000 to 5000 cells depending on cell type in 50 μl) were then plated and incubated overnight at 37° C. The compound (e.g. the compound of formula (I); compound of formula (II); pentamidine; or the vehicle) was introduced. After 2 days of incubation at 37° C., 10 μl of a 5 mg/ml solution of MTT was then added to all the experimental wells as well as the media control well. The plates were further incubated for 4 hours. […] The plates were then read on an ELISA plate reader with absorbance at 570 nm and a reference at 630 nm. […]
# [2] = cited from earlier work
# [3] = tested on: H460 Lung Carcinoma Cell Line; test: MTT assay on H460 Lung Carcinoma Cell Line; assay type: cell-based
# From the text: (§1) Cell Survival—MTT assay: The MTT (3-[4,5-Dimethylthiazol-2-yl]-2,5 diphenyl tertrazolim bromide) method of determining cell growth/cytotoxicity is used to determine cell survival. MIT is a tetrazolium salt cleaved by mitochondrial dehydrogenases of living cells. Cleavage converts yellow, water soluble MTT to an insoluble, purple formazan crystal. The crystals can be solubilized with a 50% N,N-dimethylformamide (vol/vol), 20% SDS (wt/vol) solution (pH4.7), and absorbance determined at a wavelength of 570 nm. Dead cells will not cleave MTT and uncleaved MTT is not detectable at this wavelength. The amount of MTT that is cleaved increases with increasing cell numbers, and decreases as a result of cell cytotoxicity (Niks and Otto 1990, Hussain et al. 1993). Cells were harvested from cell cultures using a standard protocol (i.e. Trypsin/EDTA). The cells (1000 to 5000 cells depending on cell type in 50 μl) were then plated and incubated overnight at 37° C. The compound (e.g. the compound of formula (I); compound of formula (II); pentamidine; or the vehicle) was introduced. After 2 days of incubation at 37° C., 10 μl of a 5 mg/ml solution of MTT was then added to all the experimental wells as well as the media control well. The plates were further incubated for 4 hours. MTT solubilization buffer (100 μl) was then added and the plates were incubated overnight at 37° C. The plates were then read on an ELISA plate reader with absorbance at 570 nm and a reference at 630 nm.
# (§2) Iniparib, Veliparib and Olaparib were also subjected to the MTT assay without an endo-exonuclease compound as controls.
# [4] = tested on: MCF7 Breast Cancer Cell Line; test: MTT assay on MCF7 Breast Cancer Cell Line; assay type: cell-based, human
# Method: (§3) Cell lines from human colon adenocarcinoma (HT29), human breast adenocarcinoma (MCF7) and human cervical epithelioid carcinoma (HeLa) were obtained from the American Type Culture Collection (ATCC) and have ATCC accession numbers HTB-38, HTB-22, and CCL-2 respectively. The normal primary cell, NHDF, was obtained from Dr. Shirley Lehnert. These cells are normal human skin fibroblasts. The cells were grown in RPMI media supplemented with 10% FCS at 37° C. in a humidified incubator with 5% CO2.
# as §1, §2
# [5] = tested on: HT29 Colon Cancer Cell Line; test: MTT assay on HT29 Colon Cancer Cell Line; assay type: cell-based, human
# Method: as §3, §1, §2
# [6] = Homo sapiens, NCI-H460, PARP inhibitor alone: Iniparib 42 μM, Veliparib 50 μM, Olaparib 73 μM
# [7] = Homo sapiens, PARP inhibitor alone: Iniparib 42 μM, Veliparib 50 μM, Olaparib 73 μM
# [8] = Homo sapiens, HT-29, PARP inhibitor alone: Iniparib 42 μM, Veliparib 50 μM, Olaparib 73 μM
compound,measurement,setting,value
"N=C(NCC1CC1)c1ccc(-c2ccc(-c3ccc(C(=N)NCC4CC4)cc3)o2)cc1 [2,5-bis[4-[(N-cyclopropylmethylguanyl)phenyl]furan]",nuclease inhibition activity in P. carinii,[1],showed nuclease inhibition activity
"N=C(NC1CC1)c1ccc(-c2ccc(-c3ccc(C(=N)NC4CC4)cc3)o2)cc1 [2,5-bis [4-N-(cyclopropylguanyl)phenyl] furan]",nuclease inhibition activity in P. carinii,[1],showed nuclease inhibition activity
"CC(C)NC(=N)c1ccc(-c2ccc(-c3ccc(C(=N)NC(C)C)cc3)o2)cc1 [2,5-bis[4-(N-isopropylguanyl)phenyl]furan]",nuclease inhibition activity in P. carinii,[1],inhibits endo-exonuclease activity
"N=C(N)c1ccc(-c2ccc(-c3ccc(C(=N)N)cc3)o2)cc1 [2,5-bis[4-guanylphenyl]furan]",nuclease inhibition activity in P. carinii,[1],showed nuclease inhibition activity
"N=C(NC1CCCC1)c1ccc(-c2ccc(-c3ccc(C(=N)NC4CCCC4)cc3)o2)cc1 [2,5-bis[(4-N-cyclopentylguanyl)phenyl]furan]",nuclease inhibition activity in P. carinii,[1],showed nuclease inhibition activity
"N=C(N)c1ccc(OCCCCCOc2ccc(C(=N)N)cc2)cc1 [Pentamidine, pentamidine]",IC50,human endo-exonuclease,50 µM
same,Endo-exonuclease Inhibition at 50 μM (%),human endo-exonuclease; 50 μM,50%
same,Lung Cysts remaining (% of Control),Lewis Lung cancer cells,4.5 % of Control
same,H661 (Lung Cancer Cell) (% of Cell Growth at 2.5 μM),"H661 (Lung Cancer Cell); 2.5 μM, negative value = cell killing",20 ± 2%
same,death of the cancer cells (H661),H661 (Lung Cancer Cell); Table 1,Death of the cancer cells was not observed
same,safety for patients,[2]; 4 mg/kg to 7 mg/kg for two days every two weeks,safe for patients
same,toxicity (known clinical data),"[2]; human, in vivo",low toxicity
"c1cc(-c2ccc(-c3ccc(C4=NCCCN4)cc3)o2)ccc1C1=NCCCN1 [2,5-bis-p[3,4,5,6-tetrahydropyrimidyl)phenyl]furan]",nuclease inhibition activity in P. carinii,[1],showed nuclease inhibition activity
"N=C(NC1CCC1)c1ccc(-c2ccc(-c3ccc(C(=N)NC4CCC4)cc3)o2)cc1 [2,5-bis[(4-N-cyclobutylgunayl)phenyl]furan]",nuclease inhibition activity in P. carinii,[1],showed nuclease inhibition activity
"CC(C)CNC(=N)c1ccc(-c2ccc(-c3ccc(C(=N)NCC(C)C)cc3)o2)cc1 [2,5-bis[4-N-isobutylguanyl)phenyl]furan]",nuclease inhibition activity in P. carinii,[1],showed nuclease inhibition activity
NC(=O)c1ccc(I)c([N+](=O)[O-])c1 [Iniparib],inhibition at 42 µM,[3]; [6],0.8%
same,inhibition at 42 µM,[4]; [7],5%
same,inhibition at 42 µM,[5]; [8],4.8%
CC(C)NC(=N)c1ccc(OCCCCCOc2ccc(C(=N)NC(C)C)cc2)cc1 [Di-Amidine B],IC50,human endo-exonuclease,14 µM
same,Lung Cysts remaining (% of Control),Lewis Lung cancer cells,0.22 % of Control
N=C(Nc1ccccc1)c1ccc(OCCCCCOc2ccc(C(=N)Nc3ccccc3)cc2)cc1 [Di-Amidine A],% Inhibition,[3]; MTDX101 33 μM alone,25%
same,% Inhibition,[3]; MTDX101 336 μM alone,85%
same,IC50,human endo-exonuclease,58 µM
same,Lung Cysts remaining (% of Control),Lewis Lung cancer cells,1.7 % of Control
same,% Inhibition,[4]; MTDX101 33 μM alone,20%
same,% Inhibition,[4]; MTDX101 336 μM alone,80%
same,% Inhibition,[5]; MTDX101 33 μM alone,15%
same,% Inhibition,[5]; MTDX101 336 μM alone,64%
C[C@]1(c2nc3c(C(N)=O)cccc3[nH]2)CCCN1 [Veliparib],inhibition at 50 µM,[3]; [6],19%
same,inhibition at 50 µM,[4]; [7],13%
same,inhibition at 50 µM,[5]; [8],6%
O=C(c1cc(Cc2n[nH]c(=O)c3ccccc23)ccc1F)N1CCN(C(=O)C2CC2)CC1 [Olaparib],inhibition at 73 µM,[3]; [6],11%
same,inhibition at 73 µM,[4]; [7],17%
same,inhibition at 73 µM,[5]; [8],14%
